Laboratory results: US7396946B2, “Compound for treatment of external secretion disorders” (Sucampo AG, priority 1999, dated 2008)

Tests used:
[1] = test system: normal rabbits; test: Effect on whole tear secretion of normal rabbits (Schirmer's test, Test Example 1); format: in vivo, Male Japanese albino rabbits (Std:JW/CSK); conditions: for whole tear secretion: 30 μl/eye single instillation, 8 eyes
Experimental: Male Japanese albino rabbits (Std:JW/CSK) were used.
(2) Method of Administration
Ophthalmic solution comprising 0.001% of 13,14-dihydro-15-keto-16,16-difluoro-PGE1 as an active ingredient of the present invention was prepared and used as a test composition. As a control, the vehicle of said solution without the active ingredient was used.
Each of the compositions was instilled singly to eight eyes at the amount of 30 μl/eye. After the administration, the time course of the tear secretion change was examined according to the following method.
Before (0 hour) and 0.5, 2, 4, and 6 hours after the instillation, the whole tear secretion was determined.
Under no anesthetization, one edge of the Schirmer's test strip (Showa Yakuhin Kako Co., Ltd., Lot No. 70080) was inserted into the conjunctival sac of the each test animal. One minute after, the strip was removed and the length of the moisted part was read from the scale provided on the strip to determine the amount of whole tear secretion.

[2] = test system: Rabbit Dry-eye Syndrome Model, which was Induced by Trigeminal Denervation; test: Keratoepithelial lesion score in rabbit dry-eye syndrome model induced by trigeminal denervation (Test Example 2); format: in vivo, male Japanese albino rabbits (Std:JW/CSK); conditions: for Keratoepithelial lesion: score 0-4 by stained area (Table 2), 5 eyes
Experimental: Fifteen male Japanese albino rabbits (Std:JW/CSK) were used.
(2) Generating Rabbit Dry-eye Syndrome Model by Trigeminal Denervation.
Urethane (ALDRICH) was administered i.p. at the dose of 1 g/kg to the rabbits of which occipital hair had been shaved.
After disinfecting of the shaved area, midline incision of the skin was made from the frontal bone to the ear root, and the muscular tissue around the periosteum, temporal bone and manidibular articular process were detached. After the detachment, a hole of 2×1.5 cm in size was made in the bone from the parietal medial region to the temporal region by means of the bone drill (URAWA KOGYO Co., Ltd. MINITOR C-130) under the surgical microscope (KONAN CAMERA R&I Inc., PMO-50). Then, the dura was detached from the cranial bone while cotton bud was kept inserted between the temporal bone and the dura. After the detachment was made up to the cranial base, detachment was further made toward the medial border of the petrous part of temporal bone in the carnial cavity, to find the trigeminal nerve in the petrous part. Then, the dura of about 1 to 2 mm on the nasal side of the semilunar ganglion was incised. After the incision, the two branches of nerve fascicle, i.e. the first branch (ocular nerve) of the trigeminal nerve and the second branch (maxillary nerve) were pulled laterally and cut with corneoscleral scissors. Immediately after the operation, miosis of the ipsilateral eye was confirmed and then the cotton kept inserted was removed, and the skin at the head was closed with suture. After the operation, an antibiotic (MYCILLIN SQL® Meiji) was administered i.m. at the dose of 0.1 ml/kg.
The trigeminal denervation was made only on the left eye side, while on the right eye side, no trigeminal denervation nor sham operation was made.
(3) Method of Administration.
13,14-dihydro-15-keto-16,16-difluoro-PGE1 was used as an active ingredient of the present invention to prepare test eyedrops containing 0.0001% and 0.001% of the compound. As a control, the vehicle of the eyedrops without the active ingredient was used.
Each of the compositions was instilled to the eyes everyday at the volume of 30 μl/eye two times a day (at 10:00 and 18:00) for two weeks. Five eyes per each of the test groups and the control group were treated and then examined for the whole tear secretion, the basal tear secretion and the keratoepithelial lesion as follows.
iii) Keratoepithelial Lesion
Before the start of instillation (week 0) and 1, 2, and 3 weeks after the start, the keratoepithelial lesion was evaluated two hours after the first instillation on the day of examination.
Each animal was placed in a stainless steel fixator, and given instillation of 50 μl of the mixture of 1% rose bengal and 1% fluorescein to stain their keratoconjunctival epithelium.

[3] = test system: rats (Crj:CD strain); test: Exaltation of salivation, saliva evaluated visually (Test Example 3); format: in vivo, Male and female rats (Crj:CD strain); conditions: 1 mg/kg orally once a day, 16 animals per group
Experimental: The effect of the composition of the present invention on salivary secretion was determined. (1) Test Animals Male and female rats (Crj:CD strain) were used. Each of the test and control groups contains 16 animals. (2) Method of Administration 13,14-dihydro-15-keto-16,16-difuloro-PGE1 was used as an active ingredient of the present invention to prepare test solution containing 0.2 mg/ml of the compound. 5 ml/kg of the solution (1 mg/kg of the compound) was forcedly administrated orally once a day. For the animals of control group, 5 ml/kg of the vehicle without the active ingredient was administrated once a day. The administration was continued for four weeks. (3) Examination The amount of the saliva of the test group and control group was evaluated visually everyday.

[4] = test system: rats (SD strain); test: Exaltation of salivation, salivary weight on paper filter (Test Example 4); format: in vivo, Male rats (SD strain); conditions: 1.0 mg/kg orally once a day for 10 days
Experimental: The effect of the composition of the present invention on salivary secretion was determined. (1) Test Animals Male rats (SD strain) were used. Each of the test and control groups contains 8 animals. (2) Method of Administration 13,14-dihydro-15-keto-16,16-difuloro-PGE1 was used as an active ingredient of the present invention to prepare test solution containing 0.2 mg/ml of the compound. 5 ml/kg of the solution (1.0 mg/kg of the compound) was forcedly administrated orally once a day. For the animals f control group, 5 ml/kg of vehicle without the active ingredient was administrated once a day. The administration was continued for 10 days. (3) Examination The amount of the saliva of the test group and control group was measured one hour after the administration on 10th day. The edge of a paper filter (Schirmer's test strip, Showa Yakuhin Kako Co., Ltd.) was inserted between lower gingiva and mandibula. Three minutes after, the paper filter was removed and the weight of the saliva was calculated by the following formula. weight of saliva=(the weight of paper filter including saliva)−(weight of only paper filter) (4) Result

CCCCC(F)(F)C(=O)CCC1C(O)CC(=O)C1CCCCCCC(=O)O (centres unmarked) [13,14-dihydro-15-keto-16,16-difluoro-PGE1]
whole tear secretion ([1]; 0.001% ophthalmic solution, 0.5 hr after): 17.0 ± 0.5 mm/min.
whole tear secretion ([1]; 0.001% ophthalmic solution, 2 hr after): 14.1 ± 0.5 mm/min.
whole tear secretion ([1]; 0.001% ophthalmic solution, 4 hr after): 11.7 ± 0.6 mm/min.
whole tear secretion ([1]; 0.001% ophthalmic solution, 6 hr after): 10.5 ± 1.0 mm/min.
amount of whole tear secretion (result in words) ([1]; 0.001% ophthalmic solution, versus control group): significant increase
stimulating response, such as rubor in the front of the eye ([1]; after instillation of 0.001% ophthalmic solution, 30 μl/eye): No stimulating response
whole tear secretion ([1]; test group 0.001% ophthalmic solution, before the administration (baseline)): 5.3 ± 0.2 mm/min.
Keratoepithelial lesion ([2]; 0.0001% eyedrops 30 μl/eye two times a day for two weeks, week 1): 1.00 ± 0.27^[*^]++ score
Keratoepithelial lesion ([2]; 0.0001% eyedrops 30 μl/eye two times a day for two weeks, week 2): 0.50 ± 0.16^[*^]++ score
Keratoepithelial lesion ([2]; 0.0001% eyedrops 30 μl/eye two times a day for two weeks, week 3): 0.40 ± 0.19^#++ score
Keratoepithelial lesion ([2]; 0.001% eyedrops 30 μl/eye two times a day for two weeks, week 1): 0.70 ± 0.34^++ score
Keratoepithelial lesion ([2]; 0.001% eyedrops 30 μl/eye two times a day for two weeks, week 2): 0.10 ± 0.10^[++] score
Keratoepithelial lesion ([2]; 0.001% eyedrops 30 μl/eye two times a day for two weeks, week 3): 0.10 ± 0.10^[##][++] score
keratoconjunctival lesion accompanied by the decrease of the tear secretion (result in words) ([2]; dry-eye syndrome model animals, 0.0001% and 0.001% eyedrops): improved
Keratoepithelial lesion ([2]; test group 0.0001% eyedrops, before administration (after operation, baseline)): 3.00 ± 0.32^[**^] score
Keratoepithelial lesion ([2]; test group 0.001% eyedrops, before administration (after operation, baseline)): 3.00 ± 0.32^[**^] score
rats in which exaltation of saliva was observed ([3]; 10th day after the start of the administration): 8 of 16
rats showing salivary exaltation ([3]; subsequent to the 22nd day after the start): 16 rats
salivary secretion (result in words) ([4]; compared with the control group): significantly increased
Salivary weight (mean ± S.E.) ([4]; one hour after the administration on 10th day, paper filter 3 minutes, 8 animals): 18.1 ± 5.6 mg
